Test results as given in patent US20080194546A1, “Pyrido-, Pyrazo- and Pyrimido-Pyrimidine Derivatives as mTOR Inhibitors” (KuDOS Pharmaceuticals Limited, priority 2005, published 2008).
Where two headings read alike, the source gives them in different places.

Assays:
mTOR = molecular target: T1, mTOR (Homo sapiens, UniProt P42345); assay: Biological Assay: mTOR enzyme activity, mTOR immunoprecipitated from HeLa cell cytoplasmic extract, recombinant PHAS-1 as substrate; type: biochemical
T1 construct: mTOR protein was isolated from HeLa cell cytoplasmic extract by immunoprecipitation; endogenous in cells; host or cells: HeLa cell cytoplasmic extract (immunoprecipitate)
Source text: For mTOR enzyme activity assays, mTOR protein was isolated from HeLa cell cytoplasmic extract by immunoprecipitation, and activity determined essentially as described previously using recombinant PHAS-1 as a substrate (ref. 21).

T47D cells = assay: Cell Proliferation Assay (GI50), sulforhodamine B (SRB) assay; type: cell-based; settings: for GI50: Homo sapiens, 120 hours, SRB
Procedure: Cell growth was assessed using the sulforhodamine B (SRB) assay (A). T47D (ECACC, 85102201) cells were routinely passaged in RPMI (Invitrogen, 42401018) plus 10% foetal calf serum (FCS), 1% L-glutamine (Gibco BRL, 25030) to a confluence not greater than 80%. To undertake the assay, T47D cells were seeded at 2.5×10^3 cells/well in […] RPMI plus 10% foetal calf serum, 1% L-glutamine in 96 well plates (Costar, 3904) and incubated at 37° C. (+5% CO2) in a humidified incubator. Once the cells had fully adhered (typically following 4-5 hours incubation) the plate was removed from the incubator and 10 μL of the diluent added to the control wells (A1-12 and B1-12). Compound was prepared in a six point semi-log dilution at 10× the final concentration required e.g. for a 6 point range of 30 μM to 100 nM in semi-log steps dilution started at 300 μM in stock plate. Dosing was completed by addition of 10 μL of compound at highest concentration to C1-12 through to the lowest concentration in H1-12. The plates were then incubated for 120 hours prior to SRB analysis.
Upon completion of incubation, media was removed and the cells fixed with […] of ice cold 10% (w/v) trichloroacetic acid. The plates were incubated at 4° C. for 20 minutes and then washed four times with water. Each well of cells was then stained with 100 μl of 0.4% (w/v) SRB (Sulforhodamine B, Sigma, Poole, Dorset, UK, Catalogue number S-9012) in 1% acetic acid for 20 minutes before washing four times with 1% acetic acid. Plates were then dried for 2 hours at room temperature. The dye from the stained cells was solubilized by the addition of 100 μl of 10 mM Tris Base into each well. Plates were gently shaken and left at room temperature for 30 minutes before measuring the optical density at 564 nm on a Microquant microtiter plate reader. The concentration of inhibitor eliciting a 50% reduction in growth (GI50) was determined by analysis of staining intensity of the treated cells as a percentage of the vehicle control wells using Excelfit software.
(A) Skehan, P., Storung, R., Scudiero, R., Monks, A., McMahon, J., Vistica, D., Warren, J. T., Bokesch, H., Kenny, S. and Boyd, M. R. (1990) New […] cytotoxicity assay for anticancer-drug screening. J. Natl. Cancer Inst. 82, 1107-1112.

[1] = molecular target: recombinant mTOR (FLAG-tagged, amino acid residues 1362 to 2549) (Homo sapiens, UniProt P42345); assay: Alternative Enzyme Assay: AlphaScreen, inhibition of phosphorylation by recombinant mTOR; type: biochemical
[2] = tested on: phosphorylation of Serine 473 in Akt in MDA-MB-468 cells; assay: In Vitro phospho-Ser473 Akt Assay (Acumen Explorer); type: cell-based; settings: Homo sapiens, MDA-MB-468 cells
[3] = Biological Assay, upper bounds, read-out: IC50 values against mTOR
[4] = AlphaScreen, ATP 20 μM, read-out: IC50, tested in Alternative Enzyme Assay
[5] = 2 hours, read-out: IC50, phospho-Ser473 Akt assay (cellular IC50, measured by pAkt)
[6] = Alternative Enzyme Assay, upper bounds, read-out: IC50 values against mTOR
[7] = Alternative Enzyme Assay, read-out: IC50 values against mTOR
[8] = compounds of Formula I(B), read-out: IC50 values against mTOR (phospho-Ser473 Akt assay)
[9] = mTOR from HeLa extract, PHAS-1 substrate, read-out: IC50, tested in the Biological Assay

| SMILES | IC50 [2, 5] [nM] | IC50 [1, 6] [nM] | IC50 [1, 7] [nM] | also measured |
| --- | --- | --- | --- | --- |
| COc1ccc(-c2ccc3c(N4CCOCC4)nc(N4CCOC[C@@H]4C)nc3n2)cc1CO [Comparative Example 1a, reference compound] |  |  |  | IC50 of Comparative Examples compared to the corresponding Examples (mTOR; Biological Assay, comparison in words): IC50 Comparative Example 1a>IC50 Example 11a; GI50 of Comparative Examples compared to the corresponding Examples (T47D cells; comparison in words): GI50 Comparative Example 1a>GI50 Example 11a |
| C[C@@H]1CN(c2nc(N3CCOCC3)c3ccc(-c4ccc(Cl)cc4)nc3n2)C[C@H](C)O1 [Example 1b] |  |  |  | IC50 (mTOR; [3]): < 100 nM; IC50 [1, 4]: 57 nM |
| CC(C)Oc1ccc(-c2ccc3c(N4CCOCC4)nc(N4C[C@@H](C)O[C@@H](C)C4)nc3n2)cc1 [Example 1bd] | < 25000 | < 10000 | < 300 |  |
| C[C@H]1COCCN1c1nc(N2CCOCC2)c2ccc(-c3ccc(Cl)cc3)nc2n1 [Example 1be] | < 2500 | < 10000 | < 300 |  |
| C[C@@H]1CN(c2nc(N3CCOCC3)c3ccc(-c4cccc(/C=N/O)c4)nc3n2)C[C@H](C)O1 [Example 1bg] | < 2500 |  | < 300 |  |
| C/C(=N/O)c1cccc(-c2ccc3c(N4CCOCC4)nc(N4C[C@@H](C)O[C@@H](C)C4)nc3n2)c1 [Example 1bh] | < 25000 |  | < 300 |  |
| C[C@@H]1CN(c2nc(N3CCOCC3)c3ccc(-c4ccoc4CO)nc3n2)C[C@H](C)O1 [Example 1bi] | < 25000 |  | < 300 |  |
| COc1ccc(-c2ccc3c(N4CCOCC4)ncnc3n2)cc1CO [Example 1bj] | < 25000 |  | < 300 |  |
| CCOc1ccc(-c2ccc3c(N4CCOCC4)nc(N4C[C@@H](C)O[C@@H](C)C4)nc3n2)cc1 [Example 1br] | < 2500 | < 1000 |  |  |
| C[C@H]1CCCCN1c1nc(N2CCOCC2)c2ccc(-c3ccc(Cl)cc3)nc2n1 [Example 1g] |  |  |  | IC50 (mTOR; [3]): < 100 nM; GI50 (T47D cells; upper bounds): < 300 nM |
| C[C@@H]1CN(c2nc(N3CCOCC3)c3ccc(-c4ccco4)nc3n2)C[C@H](C)O1 [Example 1r] |  |  |  | IC50 (mTOR; [3]): < 1000 nM; GI50 (T47D cells): 232 nM |
| COc1ccc(-c2ccc3c(N4CCOCC4)nc(N4C[C@@H](C)O[C@@H](C)C4)nc3n2)cc1CNC1CCC1 [Example 8a] |  |  |  | IC50 (mTOR; [3]): < 100 nM; GI50 (T47D cells; upper bounds): < 300 nM |
| COc1ccc(-c2ccc3c(N4CCOCC4)nc(N4C[C@@H](C)O[C@@H](C)C4)nc3n2)cc1CNCC1CCCCC1O (some centres unmarked) [Example 8aa] |  |  |  | IC50 (mTOR; [3]): < 100 nM; GI50 (T47D cells): < 1000 nM |
| COc1ccc(-c2ccc3c(N4CCOCC4)nc(N4C[C@@H](C)O[C@@H](C)C4)nc3n2)cc1CNCC1CCCCCC1O (some centres unmarked) [Example 8ab] |  |  |  | IC50 (mTOR; [3]): < 100 nM; GI50 (T47D cells; upper bounds): < 300 nM |
| CCOC(=O)C1CCCCC1NCc1cc(-c2ccc3c(N4CCOCC4)nc(N4C[C@@H](C)O[C@@H](C)C4)nc3n2)ccc1OC (some centres unmarked) [Example 8ac] |  |  |  | IC50 (mTOR; [3]): < 100 nM; GI50 (T47D cells): < 1000 nM |
| COc1ccc(-c2ccc3c(N4CCOCC4)nc(N4C[C@@H](C)O[C@@H](C)C4)nc3n2)cc1CNCCSCCO [Example 8ad] |  |  |  | IC50 (mTOR; [3]): < 100 nM; GI50 (T47D cells; upper bounds): < 300 nM |
| COc1ccc(-c2ccc3c(N4CCOCC4)nc(N4C[C@@H](C)O[C@@H](C)C4)nc3n2)cc1CNCCSCc1ccc(CN(C)C)o1 [Example 8ae] |  |  |  | IC50 (mTOR; [3]): < 1000 nM; GI50 (T47D cells; upper bounds): < 300 nM |
| C=CCOC(=O)[C@H](CC(C)C)NCc1cc(-c2ccc3c(N4CCOCC4)nc(N4C[C@@H](C)O[C@@H](C)C4)nc3n2)ccc1OC [Example 8af] |  |  |  | IC50 (mTOR; [3]): < 1000 nM; GI50 (T47D cells; upper bounds): < 300 nM |
| COc1ccc(-c2ccc3c(N4CCOCC4)nc(N4C[C@@H](C)O[C@@H](C)C4)nc3n2)cc1CNC1CCCC(C)C1C (some centres unmarked) [Example 8ag] |  |  |  | IC50 (mTOR; [3]): < 100 nM; GI50 (T47D cells; upper bounds): < 300 nM |
| COc1ccc(-c2ccc3c(N4CCOCC4)nc(N4C[C@@H](C)O[C@@H](C)C4)nc3n2)cc1CNCc1ccc(F)cc1 [Example 8ah] |  |  |  | IC50 (mTOR; [3]): < 100 nM; GI50 (T47D cells; upper bounds): < 300 nM |
| COc1ccc(-c2ccc3c(N4CCOCC4)nc(-c4cc(N)cc(C(=O)O)c4)nc3n2)cc1CO [Example 9a] | < 25000 | < 10000 | < 300 |  |
| Clc1ccc(-c2ccc3c(N4CCOCC4)nc(-c4cccc(-c5ccccc5)c4)nc3n2)cc1 [Example 9aa] | < 25000 | < 1000 |  |  |

| SMILES | IC50 [2, 5] [nM] | IC50 [1, 6] [nM] | IC50 [1, 7] [nM] | also measured |
| --- | --- | --- | --- | --- |
| COc1ccc(-c2ccc3c(N4CCOCC4)nc(-c4cccc(C)c4)nc3n2)cc1CO [Example 9d] | < 25000 | < 10000 | < 300 |  |
| COc1cccc(-c2nc(N3CCOCC3)c3ccc(-c4ccc(OC)c(CO)c4)nc3n2)c1 [Example 9e] | < 25000 | < 10000 | < 300 |  |
| COc1ccc(-c2ccc3c(N4CCOCC4)nc(-c4ccco4)nc3n2)cc1CO [Example 9f] | < 25000 | < 10000 | < 300 |  |
| COc1ccc(-c2ccc3c(N4CCOCC4)nc(-c4cccc(C=O)c4)nc3n2)cc1CO [Example 9g] | < 2500 | < 10000 | < 300 |  |
| COCc1cccc(-c2nc(N3CCOCC3)c3ccc(-c4ccc(OC)c(CO)c4)nc3n2)c1 [Example 9h] | < 2500 |  | < 300 |  |
| COc1ccc(-c2ccc3c(N4CCOCC4)nc(-c4cccc(O)c4)nc3n2)cc1CO [Example 9i] | < 2500 | < 10000 | < 300 |  |
| COc1ccc(-c2ccc3c(N4CCOCC4)nc(-c4cccc(C#N)c4)nc3n2)cc1CO [Example 9j] | < 25000 | < 10000 | < 300 |  |
| COc1ccc(-c2ccc3c(N4CCOCC4)nc(-c4cccc(C(N)=O)c4)nc3n2)cc1CO [Example 9k] | < 2500 |  | < 300 |  |
| COc1ccc(-c2ccc3c(N4CCOCC4)nc(-c4cccc(N)c4)nc3n2)cc1CO [Example 9l] | < 2500 |  | < 300 |  |
| OCc1cccc(-c2nc(N3CCOCC3)c3ccc(-c4ccc(Cl)cc4)nc3n2)c1 [Example 9m] | < 2500 | < 1000 |  |  |
| COc1ccc(-c2ccc3c(N4CCOCC4)nc(-c4cccc(CN)c4)nc3n2)cc1CO [Example 9n] | < 2500 | < 1000 |  |  |
| COc1ccc(-c2ccc3c(N4CCOCC4)nc(-c4cccc(C(F)(F)F)c4)nc3n2)cc1CO [Example 9r] | < 25000 | < 1000 |  |  |
| O=Cc1cccc(-c2nc(N3CCOCC3)c3ccc(-c4ccc(Cl)cc4)nc3n2)c1 [Example 9w] |  | < 10000 |  |  |
| Clc1ccc(-c2ccc3c(N4CCOCC4)nc(-c4ccco4)nc3n2)cc1 [Example 9x] |  | < 10000 |  |  |
| Cc1cccc(-c2nc(N3CCOCC3)c3ccc(-c4ccc(Cl)cc4)nc3n2)c1 [Example 9y] |  | < 10000 |  |  |
| COCc1cccc(-c2nc(N3CCOCC3)c3ccc(-c4ccc(Cl)cc4)nc3n2)c1 [Example 9z] |  | < 10000 |  |  |
| C[C@H]1COCCN1c1nc(N2CCOC[C@@H]2C)c2ccc(-c3ccc(F)c(C#N)c3)nc2n1 [Example 11av, 5-[2,4-bis-((S)-3-methyl-morpholin-4-yl)-pyrido[2,3-d]pyrimidin-7-yl]-2-fluoro-benzonitrile] |  |  | < 300 | IC50 [2, 8]: < 300 nM |
| COc1ccc(-c2ccc3c(N4CCOC[C@@H]4C)nc(N4C[C@@H](C)O[C@@H](C)C4)nc3n2)cc1CO [Example 11b] |  |  | < 100 | IC50 (mTOR; [9]): 1.85 nM; IC50 [2, 8]: < 100 nM |
| CCC1CCCCN1c1nc(N2CCOC[C@@H]2C)c2ccc(-c3ccc(OC)c(CO)c3)nc2n1 (some centres unmarked) [Example 11c] |  |  | < 300 | IC50 (mTOR; [9]): 1.84 nM; IC50 [2, 8]: < 100 nM |
| C[C@H]1COCCN1c1nc(N2CCOC[C@@H]2C)c2ccc(-c3cccc(Cl)n3)nc2n1 [Example 11v] |  |  | < 300 | IC50 ([2]; compounds of Formula I(B), upper bounds, read-out: IC50 values against mTOR (phospho-Ser473 Akt assay)): < 11000 nM; IC50 [1, 4]: 180 nM |
| COc1ccc(-c2ccc3c(N4CCOC[C@@H]4C)nc(-c4cccc(N)c4)nc3n2)cc1CO [Example 29f] |  |  | < 100 | IC50 [2, 8]: < 300 nM; IC50 [1, 4]: 96 nM |
